Assay results reported in patent US20250319032A1, “PHARMACEUTICAL COMPOSITIONS OF RIBOCICLIB” (Novartis AG, priority 2024, published 2025).

Assays:
[1] = Range-finding oral toxicity study of DMP433 (Labcorp Study Number 8526660); type: in vivo, mouse; conditions: both sexes, Muta™ Mouse, mouse, in vivo; oral, daily; read-out: maximum tolerated dose level (MTD)
Protocol: (§1) In a previously conducted range-finding study (Labcorp Study Number 8526660) DMP433 was dosed orally in groups of 6 males and 6 females at 500, 100 or 50 mg/kg/day daily for up to 14 days. […] Where clinical signs were seen, animals had recovered prior to dosing the following day. A single Day 1 (Subgroup 1) female satellite animal was removed from the study due to the severity of the clinical observations. […] Where clinical signs were seen, animals had recovered prior to dosing the following day. […] Therefore, dosing in males and females will be conducted.
(§2) Based on the toxicity and bioanalytical data generated under Labcorp Study Number 8526660, the maximum tolerated dose level (MTD) of 100 mg/kg/day* will be used as the high dose level. Two further doses of 50 and 25 mg/kg/day, will also be tested in males (OECD, 2022). As there is a crossover in exposure between males and females, vehicle controls and the MTD of 100 mg/kg/day only will be evaluated in females. • group 4 male animals given 80 mg/kg/day from Day 4 of dosing onwards due to mortality/morbidity.

Muta™ Mice = test: as above; type: in vivo, mouse
Protocol: as §1, §2

[2] = tested on: lacZ transgene within the bone marrow, liver, kidney, and duodenum from treated Muta™ Mice; test: Transgenic gene mutation assay in Muta™ Mice (lacZ); type: in vivo, Muta™ Mouse CD2-lacZ80/HazfBR; conditions: oral gavage, 28 consecutive days, sampling day 31
Text: A study is on-going, with the objective of evaluating the potential of DMP433 to induce gene mutations in the lacZ transgene within the bone marrow, liver, kidney, and duodenum from treated Muta™ Mice. The bone marrow and liver will be examined as these tissues are expected to be highly exposed to DMP433 upon oral gavage dosing and/or representative of organs with fast and slow dividing cells respectively. The duodenum will be assessed as a site of contact tissue following oral gavage dosing. The kidney will also be examined as a standard target organ for tumours for nitrosamines.
The animals used will be transgenic mouse of the strain Muta™ Mouse CD2-lacZ80/HazfBR (supplied by Charles River, UK). The animals will have an age range of approximately 8 to 12 weeks on the first day of dosing, and a weight range of approximately 18 to 35 g. […]
as §2, with “Two further doses of 50 and 25 mg/kg/day, will also be tested in males (OECD, 2022).” left out, “mortality/morbidity. […]” for “mortality/morbidity.”

[3] = Bioanalysis and toxicokinetic evaluation of DMP433 in mouse plasma and tissues; type: in vivo; conditions: 100 mg/kg/day, Day 14
Protocol: as §1
The blood samples will be processed. Determination of DMP433 in mouse plasma containing K2EDTA as an anticoagulant will be conducted by Labcorp Bioanalytical in accordance with Labcorp Policies, and all procedures will be conducted following method DMP4MPP validated under Labcorp study number 8527178.
Toxicokinetic parameters will be estimated using Phoenix® WinNonlin® version 8.1 or higher (Certara USA, Inc., Princeton, New Jersey). A non-compartmental approach consistent with the oral route of administration will be used for parameter estimation. […]
For determination of mean DMP433 concentrations, concentration values that are below the limit of quantitation will be treated as zero. […]
Bioanalytical data will be used as received for the toxicokinetic analysis. Toxicokinetic parameters will be calculated. […]

[4] = Stability of DMP433 dose formulations in vehicle; type: physicochemical; conditions: 0.5 and 50 mg/mL; 2 to 8° C. and 15 to 25° C., protected from light
Protocol: The vehicle control is 2.2 eq HCl 1.ON (˜40%)+28% as powder sulfobutylether-β-cyclodextrin (pH 2.0+0.5), with storage conditions in dispensary of 2 to 8° C. protected from light.
The test item formulation will be prepared daily, unless stability data supports less frequent preparation. The stability data will be generated under Labcorp Study Number 8528626. DMP433 formulations in vehicle at concentrations of 0.5 and 50 mg/mL have been confirmed as stable for up to 8 days at 2 to 8° C. and 15 to 25° C., both protected from light. The storage conditions in central dispensary will be 15 to 25° C. protected from light.
The formulation will be analysed (HPLC/UV analysis, Lapcorp method 8528626-01F, version in force on 22nd February 2024) to confirm that it achieves concentration and homogeneity. Samples (as shown in the following tables, where n/a means not applicable) will be taken from the main experiment during week 1 and week 4 and analysed accordingly.

CN(C)C(=O)c1cc2cnc(Nc3ccc(N4CCN(N=O)CC4)cn3)nc2n1C1CCCC1 [DMP433, 7-cyclopentyl-N,N-dimethyl-2-((5-(4-nitrosopiperazin-1-yl)pyridin-2-yl)amino)-7H-pyrrolo[2,3-d]pyrimidine-6-carboxamide]
MTD [1]: 100 mg/kg/day
bodyweight, Range-Finder 3 (Muta™ Mice; 50 mg/kg/day oral, 14 days): all animals except one (male M5209) had gained bodyweight
clinical signs, Range-Finder 3 (Muta™ Mice; 50 mg/kg/day oral, up to 14 days, Subgroup 2 animals): squinting, mild decreased activity and piloerection
bodyweight, Range-Finder 2 (Muta™ Mice; 100 mg/kg/day oral, 14 days): all animals gained bodyweight during the 14-day dosing period
clinical signs, Range-Finder 2 (Muta™ Mice; 100 mg/kg/day oral, up to 14 days, Subgroup 2 animals): squinting, partially closed eyes, fast respiration, mild hunched posture and piloerection
outcome of Range-Finder 1 (Muta™ Mice; 500 mg/kg/day oral, 6 males and 6 females): terminated on day 1 due to animal mortality/morbidity and convulsions
result of the gene mutation assay (capable of inducing mutation) [2]: positive
sex difference in bioanalytical data [3]: approximately 2 fold
time for which DMP433 formulations in vehicle are stable [4]: up to 8 days
